Assay results: patent US6787341B2, “Pharmacological targeting of bacterial DNA ligase for treatment and prevention of bacterial infections” (priority 2001, dated 2004)

Legend:
Format in all cases: biochemical, Amsacta moorei entomopoxvirus
AmEPV ligase [1] = biological target: T1, AmEPV ligase (Betaentomopoxvirus amoorei, UniProt Q9EMK7); experiment: Step 3 phosphodiester formation at a pre-adenylated nick by AmEPV ligase; details: 50 μM NAD+
Description: Truncated derivatives of AmEPV ligase deleted for motif Ia (NΔ70) or for the OB and HhH domains (CΔ216) were purified by Ni-agarose and phosphocellulose column cheomtography. FIG. 8A: Aliquots (3 μg) of full-sized AmEPV ligase (WT), NΔ70, and CΔ216 were analyzed by SDS-PAGE. A Coomassie blue-stained gel is shown. The positions and sizes (in kDa) of marker proteins are indicated on the left. FIG. 8B: Ligase adenylation reaction mixtures (20 μl) containing 50 mM Tris-HCl (pH 7.5), 5 mM DTT, 5 mM MgCl2, 1 μM [α-^32P]NAD^+ and 8 pmol of WT AmEPV ligase, NΔ70, or CΔ216 were incubated for 15 min at 22° C. The reaction products were resolved by SDS-PAGE and visualized by autoradiography. The positions and sizes (in kDa) of marker proteins are indicated on the right. FIG. 8C: Ligation of nicked DNA and nicked DNA-adenylate. Reaction mixtures (20 μl) containing 50 mM Tris-HCl (pH 7.5), 10 mM (NH4)2SO4, 5 mM DTT, 5 mM MgCl2, either 200 fmol of ^32P-labeled nicked DNA (pDNA) plus 50 μM NAD^+ or 200 fmol ^32P-labeled nicked DNA-adenylate (AppDNA) and no NAD^+, and 2 pmol of WT AmEPV ligase, NΔ70, or CΔ216 were incubated for 30 min at 22° C. The reaction products were resolved by denaturing PAGE. […]
FIG. 9A: Kinetic analysis of step 3. […] The mixtures were adjusted to 5% glycerol and then analyzed by electrophoresis through a 5% native polyacrylamide gel containing 90 mM Tris-borate, 2.5 mM EDTA. […]

AmEPV ligase [2] = biological target: T1, AmEPV ligase; experiment: Nucleotide cofactor specificity of AmEPV ligase in nick ligation
Description: Reaction mixtures (20 μl) containing 50 mM Tris-HCl (pH 7.5), 10 mM (NH4)2SO4, 5 mM DTT, 5 mM MgCl2, 1 pmol of ^32P-labeled nicked DNA, 32 ng of AmEPV ligase, and 50 μM of the indicated nucleotide were incubated for 30 min at 22° C. A control reaction contained no added nucleotide cofactor (none). The reaction products were resolved by polyacrylamide gel electrophoresis. An autoradiogram of the gel is shown.
A low level of nick ligation could be detected in the absence of added nucleotide (FIG. 6). Cofactor-independent ligation was attributed to pre-adenylated ligase in the enzyme preparation. […] Inclusion of NAD^+ in the reaction mixture stimulated nick ligation such that ˜90% of the input substrate molecules were sealed (FIG. 6). […] Indeed, none of the standard rNTPs or dNTPs were able to satisfy the requirement of AmEPV ligase for a high energy cofactor (FIG. 6). […] A Km of 9 μM NAD^+ was calculated from a double-reciprocal plot of the data.

AmEPV ligase [3] = biological target: T1, AmEPV ligase; details: for support of ligase activity as divalent cation: 5 mM

## NC(=O)c1ccc[n+]([C@@H]2O[C@H](COP(=O)([O-])OP(=O)(O)OC[C@H]3O[C@@H](n4cnc5c(N)ncnc54)[C@H](O)[C@@H]3O)[C@@H](O)[C@H]2O)c1 [NAD^+]
AmEPV ligase [1]; NΔ70
  effect on step 3 catalysis by NΔ70: no effect whatsoever
AmEPV ligase [1]; wild-type AmEPV ligase
  decrement in extent of step 3 ligation by wild-type ligase: 5 fold
AmEPV ligase [2]; 50 μM nucleotide
  input substrate molecules sealed with nucleotide included: ~90%
AmEPV ligase [2]; sub-saturating enzyme
  NAD+ concentration at which nick joining activity plateaued: 50 to 100 µM

## Nc1ncnc2c1ncn2[C@@H]1O[C@H](COP(=O)(O)OP(=O)(O)OP(=O)(O)O)[C@@H](O)[C@H]1O [ATP]
AmEPV ligase [2]; 50 μM nucleotide
  stimulation of nick ligation as high energy cofactor: failed to stimulate

## NC(=O)c1ccc[n+]([C@@H]2O[C@H](COP(=O)([O-])OP(=O)(O)OC[C@H]3O[C@@H](n4cnc5c(N)ncnc54)[C@H](OP(=O)(O)O)[C@@H]3O)[C@@H](O)[C@H]2O)c1 [NADP]
AmEPV ligase [2]; 50 μM nucleotide
  stimulation of nick ligation as high energy cofactor: inactive

## [Cu+2] [cooper]
AmEPV ligase [3]
  support of ligase activity as divalent cation: did not support ligase activity

## [Mn+2] [Manganese]
AmEPV ligase [3]
  support of ligase activity as divalent cation: active, albeit less than magnesium

## [Ca+2] [calcium]
AmEPV ligase [3]
  support of ligase activity as divalent cation: did not support ligase activity

## [Mg+2] [magnesium]
AmEPV ligase [3]
  optimal divalent cation concentration for nick joining: 5 mM

## [Zn+2] [zinc]
AmEPV ligase [3]
  support of ligase activity as divalent cation: did not support ligase activity

## [Co+2] [cobalt]
AmEPV ligase [3]
  support of ligase activity as divalent cation: active, albeit less than magnesium
